Experimental findings from patent publication US20080113983A1, “Nicotinic Acetylcholine Receptor Ligands” (AstraZeneca AB, priority 2004, published 2008) are described below.

The target of the assay is T1, α4 nAChR receptor (Rattus norvegicus, UniProt P09483+P12390).
T1 construct: from tissue; host or cells: rat cortical brain membranes
Kind of assay: Radioligand ([125I]-IPH) binding to rat cortical membranes. The settings on record: saturation curves fitted to a one site model. The procedure:
Assay for affinity at an α4 nAChR receptor by measuring the binding of [^3H]-(-)-nicotine binding to rat cortical membranes.
A procedure modified from Martino-Barrows and Kellar (Mol Pharm (1987) 31:169-174) may be used. Rat cortical brain membranes are prepared as described in the [^125I]α-BTX binding assay, except that a 500-12000×g membrane fraction is prepared. Membranes (30-150 μg) are incubated with 30-100 pM of the epibatidine analog [^125I]-IPH ((+/−)-exo-2-(2-iodo-5-pyridyl)-7-azabicyclo-[2,2,1]heptane) together with test compound in HB for 1 hour at room temperature with gentle shaking. Membranes may be recovered as described for the [^125I]α-BTX binding assay. Non-specific binding may be determined by 100 μM carbachol. Typically specific binding is about 84%.
Analysis of Binding Data Obtained in α7 nAChR or α4 nAChR receptor assays
IC50 values and pseudo Hill coefficients (nH) may be calculated using the non-linear curve fitting program ALLFIT (DeLean A, Munson P J and Rodbard D (1977) Am. J. Physiol., 235:E97-E102). […] Ki values may be estimated using the general Cheng-Prusoff equation:
Ki=[IC50 ]/((2+([ligand]/KD)^n)^1/n−1)
where a value of n=1 is used whenever nH<1.5 and a value of n=2 is used when nH>1.5. To account for variability, assays may be performed in triplicate and variability will typically be ±5%. Ki values may be determined using six to 11 drug concentrations.

T1 sequence (P12390 25-500): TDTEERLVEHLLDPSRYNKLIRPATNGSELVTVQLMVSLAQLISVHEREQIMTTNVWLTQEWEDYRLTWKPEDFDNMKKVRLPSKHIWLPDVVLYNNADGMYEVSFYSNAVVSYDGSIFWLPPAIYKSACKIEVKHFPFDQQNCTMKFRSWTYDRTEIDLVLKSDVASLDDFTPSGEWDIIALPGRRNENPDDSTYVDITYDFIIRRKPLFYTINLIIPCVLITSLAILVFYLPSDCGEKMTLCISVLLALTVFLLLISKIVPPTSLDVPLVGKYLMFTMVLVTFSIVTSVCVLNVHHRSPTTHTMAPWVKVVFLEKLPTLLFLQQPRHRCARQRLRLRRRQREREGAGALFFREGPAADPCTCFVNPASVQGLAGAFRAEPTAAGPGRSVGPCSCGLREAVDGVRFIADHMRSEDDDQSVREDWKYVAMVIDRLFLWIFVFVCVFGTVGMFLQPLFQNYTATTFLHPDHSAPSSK
T1 sequence (P09483 31-630): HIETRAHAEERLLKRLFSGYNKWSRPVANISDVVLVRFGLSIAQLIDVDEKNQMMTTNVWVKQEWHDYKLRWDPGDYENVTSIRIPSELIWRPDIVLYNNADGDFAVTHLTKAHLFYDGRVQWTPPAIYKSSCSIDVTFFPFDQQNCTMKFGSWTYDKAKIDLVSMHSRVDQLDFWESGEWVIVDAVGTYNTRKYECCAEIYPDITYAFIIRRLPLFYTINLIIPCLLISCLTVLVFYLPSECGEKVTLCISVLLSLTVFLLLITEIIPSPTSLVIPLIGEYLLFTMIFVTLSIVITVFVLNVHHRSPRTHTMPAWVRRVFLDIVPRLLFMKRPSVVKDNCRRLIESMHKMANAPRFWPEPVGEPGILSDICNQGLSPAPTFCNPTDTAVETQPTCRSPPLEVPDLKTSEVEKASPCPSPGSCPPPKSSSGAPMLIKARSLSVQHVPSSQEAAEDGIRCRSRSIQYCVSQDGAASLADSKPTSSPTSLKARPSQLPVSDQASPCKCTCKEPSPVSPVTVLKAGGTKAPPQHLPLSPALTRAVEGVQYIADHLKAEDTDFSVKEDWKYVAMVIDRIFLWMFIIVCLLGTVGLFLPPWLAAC

Usually Kd stands for the constant that tells how readily two partners part at equilibrium. High values mean a looser complex, low ones a tighter complex. `Ic1ccc(C2CC3CCC2N3)cn1` (racemic) [[^125I]-IPH, (+/−)-exo-2-(2-iodo-5-pyridyl)-7-azabicyclo-[2,2,1]heptane] registered an equilibrium dissociation constant (Kd) of 0.064 nM.
